The values that follow are results of earlier work, collected in patent US20150050250A1, “CELL THERAPY TECHNOLOGY TO DELIVER RADIO-PROTECTIVE PEPTIDES” (UNIVERSITY OF SOUTHERN CALIFORNIA, priority 2012, published 2015).

Series [1] deals with fibroblasts. To be noted: BBI peptide at 20 μM added directly to the tissue culture medium.
Series [2] has as its system normal tissue.

For “CALSYPAQCFC (portion of Soybean Bowman Birk protease inhibitor) [BBI peptide]”, in series [1], the “protection of fibroblasts from ionizing radiation” value is “protected fibroblasts from ionizing radiation”.

B1: Bowman Birk protease inhibitor (protein)
chain: DDESSKPCCDQCACTKSNPPQCRCSDMRLNSCHSACKSCICALSYPAQCFCVDITDFCYEPCKPSEDDKEN
modifications: Soybean
Take B1: the “radioprotection of normal tissue in vivo” value in series [2] is reported as “selective radioprotection to normal tissue in vivo”.
